Results reported in ChEMBL document CHEMBL1158609, “Potent antimicrobial activity of 3-(4,5-diaryl-1H-imidazol-2-yl)-1H-indole derivatives against methicillin-resistant Staphylococcus aureus” (2010).
In brackets after ≈: the same amount, converted by molar mass.

Columns and labels:
[1] = tested on: Staphylococcus aureus; assay: Antimicrobial activity against methicillin-susceptible Staphylococcus aureus; assay type: functional
[2] = tested on: Staphylococcus aureus; assay: Antimicrobial activity against methicillin-resistant Staphylococcus aureus; assay type: functional
[3] = tested on: Streptococcus dysgalactiae; assay: Antimicrobial activity against Streptococcus dysgalactiae ATCC 12388; assay type: functional
[4] = tested on: Staphylococcus saprophyticus; assay: Antimicrobial activity against Staphylococcus saprophyticus ATCC 15305; assay type: functional
[5] = tested on: Salmonella enterica; assay: Antimicrobial activity against Salmonella Typhimurium ATCC 13311; assay type: functional, Salmonella enterica subsp. enterica serovar Typhimurium
[6] = tested on: Staphylococcus epidermidis; assay: Antimicrobial activity against Staphylococcus epidermidis ATCC 12228; assay type: functional
[7] = tested on: Staphylococcus epidermidis; assay: Antimicrobial activity against Staphylococcus epidermidis ATCC 13518; assay type: functional
[8] = tested on: Streptococcus dysgalactiae; assay: Antimicrobial activity against Streptococcus dysgalactiae ATCC 12394; assay type: functional
[9] = tested on: Streptococcus agalactiae; assay: Antimicrobial activity against Streptococcus agalactiae ATCC 13813; assay type: functional
[10] = tested on: Staphylococcus epidermidis; assay: Antimicrobial activity against Staphylococcus epidermidis ATCC 35983; assay type: functional
[11] = tested on: Enterococcus faecalis; assay: Antimicrobial activity against Enterococcus faecalis ATCC 51299; assay type: functional
[12] = tested on: Enterococcus faecalis; assay: Antimicrobial activity against Enterococcus faecalis ATCC 51559; assay type: functional
[13] = tested on: Streptococcus sanguinis; assay: Antimicrobial activity against Streptococcus sanguinis ATCC 10556; assay type: functional
[14] = tested on: Escherichia coli; assay: Antimicrobial activity against Escherichia coli ATCC 35333; assay type: functional
[15] = tested on: Pseudomonas aeruginosa; assay: Antimicrobial activity against Pseudomonas aeruginosa ATCC 39324; assay type: functional
[16] = tested on: Enterococcus faecalis; assay: Antimicrobial activity against Enterococcus faecalis ATCC 29212; assay type: functional
[17] = tested on: Streptococcus pneumoniae; assay: Antimicrobial activity against Streptococcus pneumoniae ATCC 49150; assay type: functional
[18] = tested on: Escherichia coli; assay: Antimicrobial activity against Escherichia coli ATCC 12435; assay type: functional
[19] = tested on: Salmonella enterica; assay: Antimicrobial activity against Salmonella Typhimurium ATCC 14028; assay type: functional, Salmonella enterica subsp. enterica serovar Typhimurium
[20] = tested on: Streptococcus pyogenes; assay: Antimicrobial activity against Streptococcus pyogenes ATCC 19615; assay type: functional
[21] = tested on: Bacillus subtilis; assay: Antimicrobial activity against Bacillus subtilis ATCC 14579; assay type: functional
[22] = tested on: Bacillus subtilis; assay: Antimicrobial activity against Bacillus subtilis ATCC 6633; assay type: functional
[23] = tested on: Pseudomonas aeruginosa; assay: Antimicrobial activity against Pseudomonas aeruginosa ATCC 19142; assay type: functional
[24] = tested on: Streptococcus pyogenes; assay: Antimicrobial activity against Streptococcus pyogenes ATCC 12386; assay type: functional
[25] = tested on: Micrococcus luteus; assay: Antimicrobial activity against Micrococcus luteus ATCC 10240; assay type: functional

`O=[N+]([O-])c1ccc(-c2nc(-c3c[nH]c4ccc(Br)cc34)[nH]c2-c2ccc([N+](=O)[O-])cc2)cc1` was tested, and the MIC [1] was > 64 µg/mL.

`Cc1onc(-c2ccccc2)c1C(=O)N[C@@H]1C(=O)N2[C@@H]1SC(C)(C)[C@@H]2C(=O)O` [OXACILLIN] was tested, and the MIC [2] was > 16 µg/mL and the MIC [1] was 0.5 µg/mL (≈ 1.25 µM).

`Cc1ccc(-c2nc(-c3c(C)[nH]c4ccccc34)[nH]c2-c2ccc(C)cc2)cc1` gave an MIC [2] of 8 µg/mL (≈ 21.2 µM) and an MIC [1] of 8 µg/mL (≈ 21.2 µM).

For `Fc1ccc(-c2nc(-c3c[nH]c4ccc(Br)cc34)[nH]c2-c2ccc(F)cc2)cc1`, the MIC [3] was 2 µg/mL (≈ 4.44 µM), the MIC [4] was 2 µg/mL (≈ 4.44 µM) and the MIC [5] was > 64 µg/mL. It also gave an MIC [6] of 2 µg/mL (≈ 4.44 µM), an MIC [7] of 2 µg/mL (≈ 4.44 µM) and an MIC [8] of 2 µg/mL (≈ 4.44 µM). It also gave an MIC [2] of 1 µg/mL (≈ 2.22 µM), an MIC [9] of 2 µg/mL (≈ 4.44 µM) and an MIC [1] of 1 µg/mL (≈ 2.22 µM). It also gave an MIC [10] of 2 µg/mL (≈ 4.44 µM), an MIC [11] of 2 µg/mL (≈ 4.44 µM) and an MIC [12] of 2 µg/mL (≈ 4.44 µM). For the same compound, the MIC [13] was 1 µg/mL (≈ 2.22 µM), the MIC [14] was > 64 µg/mL and the MIC [15] was > 64 µg/mL. The MIC [16] was 2 µg/mL (≈ 4.44 µM), the MIC [17] was 2 µg/mL (≈ 4.44 µM) and the MIC [18] was > 64 µg/mL. The MIC [19] was > 64 µg/mL, the MIC [20] was 2 µg/mL (≈ 4.44 µM) and the MIC [21] was 2 µg/mL (≈ 4.44 µM). For the same compound, the MIC [22] was 2 µg/mL (≈ 4.44 µM), the MIC [23] was > 64 µg/mL and the MIC [24] was 2 µg/mL (≈ 4.44 µM). It also gave an MIC [25] of 1 µg/mL (≈ 2.22 µM).

With `Cc1[nH]c2ccccc2c1-c1nc(-c2ccc(Oc3ccccc3)cc2)c(-c2ccc(Oc3ccccc3)cc2)[nH]1` the MIC [1] was > 64 µg/mL.

`Clc1ccc(-c2nc(-c3c[nH]c4ccc(Br)cc34)[nH]c2-c2ccccc2)cc1` was tested, and the MIC [2] was 1 µg/mL (≈ 2.23 µM) and the MIC [1] was 1 µg/mL (≈ 2.23 µM).

`Cc1[nH]c2ccccc2c1-c1nc(-c2ccc(-c3ccccc3)cc2)c(-c2ccccc2)[nH]1` showed an MIC [2] of 2 µg/mL (≈ 4.7 µM) and an MIC [1] of 4 µg/mL (≈ 9.4 µM).

`Cc1[nH]c2ccccc2c1-c1nc(-c2ccc(Cl)cc2)c(-c2ccccc2)[nH]1` was tested, and the MIC [2] was 8 µg/mL (≈ 20.8 µM) and the MIC [1] was 8 µg/mL (≈ 20.8 µM).

For `Cc1[nH]c2ccccc2c1-c1nc(-c2ccc(-c3ccccc3)cc2)c(-c2ccc(-c3ccccc3)cc2)[nH]1`, the MIC [1] was > 64 µg/mL.

`Cc1[nH]c2ccccc2c1-c1nc(-c2ccc(F)cc2)c(-c2ccccc2)[nH]1` was tested, and the MIC [2] was 4 µg/mL (≈ 10.9 µM) and the MIC [1] was 4 µg/mL (≈ 10.9 µM).

Compound `Cc1[nH]c2ccccc2c1-c1nc(-c2ccc(Cl)cc2)c(-c2ccc(Cl)cc2)[nH]1` has an MIC [2] of 4 µg/mL (≈ 9.56 µM) and an MIC [1] of 4 µg/mL (≈ 9.56 µM).

`Cc1[nH]c2ccccc2c1-c1nc(-c2ccc(Br)cc2)c(-c2ccccc2)[nH]1` gave an MIC [2] of 4 µg/mL (≈ 9.34 µM) and an MIC [1] of 4 µg/mL (≈ 9.34 µM).

Work on `Brc1ccc2[nH]cc(-c3nc(-c4ccccc4)c(-c4ccccc4)[nH]3)c2c1` yielded an MIC [2] of 4 µg/mL (≈ 9.65 µM) and an MIC [1] of 4 µg/mL (≈ 9.65 µM).

`Cc1[nH]c2ccccc2c1-c1nc(-c2ccc(F)cc2)c(-c2ccc(F)cc2)[nH]1` showed an MIC [2] of 4 µg/mL (≈ 10.4 µM) and an MIC [1] of 4 µg/mL (≈ 10.4 µM).

`CN(C)c1ccc(-c2nc(-c3c[nH]c4ccc(Br)cc34)[nH]c2-c2ccc(N(C)C)cc2)cc1` was tested, and the MIC [2] was 2 µg/mL (≈ 4 µM) and the MIC [1] was 2 µg/mL (≈ 4 µM).

With `Cc1ccc(-c2nc(-c3c[nH]c4ccc(Br)cc34)[nH]c2-c2ccc(C)cc2)cc1` the MIC [2] was 4 µg/mL (≈ 9.04 µM) and the MIC [1] was 2 µg/mL (≈ 4.52 µM).

With `Brc1ccc(-c2nc(-c3c[nH]c4ccc(Br)cc34)[nH]c2-c2ccc(Br)cc2)cc1` the MIC [1] was > 64 µg/mL.

For `Brc1ccc2[nH]cc(-c3nc(-c4ccc(-c5ccccc5)cc4)c(-c4ccc(-c5ccccc5)cc4)[nH]3)c2c1`, the MIC [1] was > 64 µg/mL.

Compound `Cc1[nH]c2ccccc2c1-c1nc(-c2ccccc2)c(-c2ccccc2)[nH]1` has an MIC [2] of 4 µg/mL (≈ 11.4 µM) and an MIC [1] of 8 µg/mL (≈ 22.9 µM).

`Brc1ccc(-c2nc(-c3c[nH]c4ccc(Br)cc34)[nH]c2-c2ccccc2)cc1` showed an MIC [2] of 2 µg/mL (≈ 4.06 µM) and an MIC [1] of 2 µg/mL (≈ 4.06 µM).

`Clc1ccc(-c2nc(-c3c[nH]c4ccc(Br)cc34)[nH]c2-c2ccc(Cl)cc2)cc1` showed an MIC [2] of 2 µg/mL (≈ 4.14 µM) and an MIC [1] of 2 µg/mL (≈ 4.14 µM).

`Fc1ccc(-c2nc(-c3c[nH]c4ccc(Br)cc34)[nH]c2-c2ccccc2)cc1` was tested, and the MIC [2] was 2 µg/mL (≈ 4.63 µM) and the MIC [1] was 2 µg/mL (≈ 4.63 µM).

In the case of `O=[N+]([O-])c1ccc(-c2nc(-c3c[nH]c4ccc(Br)cc34)[nH]c2-c2ccccc2)cc1`, the MIC [1] was > 64 µg/mL.

Compound `Cc1[nH]c2ccccc2c1-c1nc(-c2ccc([N+](=O)[O-])cc2)c(-c2ccccc2)[nH]1` has an MIC [2] of 8 µg/mL (≈ 20.3 µM) and an MIC [1] of 8 µg/mL (≈ 20.3 µM).

`Brc1ccc2[nH]cc(-c3nc(-c4ccc(-c5ccccc5)cc4)c(-c4ccccc4)[nH]3)c2c1` was tested, and the MIC [2] was 4 µg/mL (≈ 8.16 µM) and the MIC [1] was 4 µg/mL (≈ 8.16 µM).

With `Cc1ccc(-c2nc(-c3c(C)[nH]c4ccccc34)[nH]c2-c2ccccc2)cc1` the MIC [2] was 4 µg/mL (≈ 11 µM) and the MIC [1] was 4 µg/mL (≈ 11 µM).

With `Brc1ccc2[nH]cc(-c3nc(-c4ccc(Oc5ccccc5)cc4)c(-c4ccc(Oc5ccccc5)cc4)[nH]3)c2c1` the MIC [1] was > 64 µg/mL.

For `Cc1[nH]c2ccccc2c1-c1nc(-c2ccc([N+](=O)[O-])cc2)c(-c2ccc([N+](=O)[O-])cc2)[nH]1`, the MIC [1] was > 64 µg/mL.

With `CN[C@H](CC(C)C)C(=O)N[C@H]1C(=O)N[C@@H](CC(N)=O)C(=O)N[C@H]2C(=O)N[C@H]3C(=O)N[C@H](C(=O)N[C@H](C(=O)O)c4cc(O)cc(O)c4-c4cc3ccc4O)[C@H](O)c3ccc(c(Cl)c3)Oc3cc2cc(c3O[C@@H]2O[C@H](CO)[C@@H](O)[C@H](O)[C@H]2O[C@H]2C[C@](C)(N)[C@H](O)[C@H](C)O2)Oc2ccc(cc2Cl)[C@H]1O` [VANCOMYCIN] the MIC [3] was 0.5 µg/mL (≈ 0.345 µM), the MIC [4] was 2 µg/mL (≈ 1.38 µM) and the MIC [5] was > 64 µg/mL. The MIC [7] was 0.5 µg/mL (≈ 0.345 µM), the MIC [8] was 1 µg/mL (≈ 0.69 µM) and the MIC [9] was 1 µg/mL (≈ 0.69 µM). The MIC [11] was 16 µg/mL (≈ 11 µM), the MIC [12] was > 64 µg/mL and the MIC [13] was 1 µg/mL (≈ 0.69 µM). For the same compound, the MIC [14] was > 64 µg/mL, the MIC [15] was > 64 µg/mL and the MIC [17] was 4 µg/mL (≈ 2.76 µM). The MIC [18] was > 64 µg/mL, the MIC [19] was > 64 µg/mL and the MIC [20] was 1 µg/mL (≈ 0.69 µM). The MIC [21] was 1 µg/mL (≈ 0.69 µM), the MIC [22] was 0.25 µg/mL (≈ 0.173 µM) and the MIC [23] was > 64 µg/mL. The MIC [24] was 2 µg/mL (≈ 1.38 µM) and the MIC [25] was 0.25 µg/mL (≈ 0.173 µM).

`Cc1ccc(-c2nc(-c3c[nH]c4ccc(Br)cc34)[nH]c2-c2ccccc2)cc1` showed an MIC [2] of 2 µg/mL (≈ 4.67 µM) and an MIC [1] of 2 µg/mL (≈ 4.67 µM).

`Cc1[nH]c2ccccc2c1-c1nc(-c2ccc(N(C)C)cc2)c(-c2ccc(N(C)C)cc2)[nH]1` gave an MIC [2] of 2 µg/mL (≈ 4.59 µM) and an MIC [1] of 2 µg/mL (≈ 4.59 µM).

For `Cc1[nH]c2ccccc2c1-c1nc(-c2ccc(Br)cc2)c(-c2ccc(Br)cc2)[nH]1`, the MIC [2] was 2 µg/mL (≈ 3.94 µM) and the MIC [1] was 2 µg/mL (≈ 3.94 µM).

In the case of `CC(=O)NC[C@H]1CN(c2ccc(N3CCOCC3)c(F)c2)C(=O)O1` [LINEZOLID], the MIC [1] was 1 µg/mL (≈ 2.96 µM).
